Among the data in patent publication US20120129842A1, “BISTHIAZOLE INHIBITORS OF PRO-MATRIX METALLOPROTEINASE ACTIVATION” (priority 2010, published 2012) are IC50 and Kd values, retold here.

Experiment [1] concerns the target T1, full-length proMMP9(1-707) (SEQ ID NO:1) (Homo sapiens, UniProt P14780, R574P).
T1 construct: made in house; host or cells: HEK293 (proMMP9, secreted); E. coli (MMP3)
The experiment can be described thus: proMMP9/MMP3 P126 Activation Assay. The class given is biochemical. As to conditions: 20 nM proMMP9, 20 nM MMP3, 80 min 37° C. As to the method: The reaction volume was 50 μL. […] Reactivity of residual MMP3 towards P-126 substrate was minimal under these conditions.

Experiment [2] has as its target T2, proMMP9(20-445;ΔFnII) (SEQ ID NO:6) (Homo sapiens, UniProt P14780, DEL216-390).
T2 construct: start methionine (N); made in house; host or cells: E. coli BL21(DE3) RIL
T2 sequence (P14780 with tags, fused parts or gaps DEL216-390): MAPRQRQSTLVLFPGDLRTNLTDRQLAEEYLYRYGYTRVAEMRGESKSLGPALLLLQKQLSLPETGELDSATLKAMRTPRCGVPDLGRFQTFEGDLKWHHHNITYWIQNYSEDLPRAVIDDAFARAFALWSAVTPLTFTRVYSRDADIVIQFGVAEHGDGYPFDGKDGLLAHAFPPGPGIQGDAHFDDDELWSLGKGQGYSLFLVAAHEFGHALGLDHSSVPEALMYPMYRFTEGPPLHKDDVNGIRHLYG
In words: ThermoFluor binding assay with proMMP9(20-445;ΔFnII). Conditions: pH 7.0. As to the method: (§1) The ThermoFluor® (TF) assay is a 384-well plate-based binding assay that measures thermal stability of proteins (Biomol Screen 2001, 6, 429-40; Biochemistry 2005, 44, 5258-66). The experiments were carried out using instruments available from Johnson & Johnson Pharmaceutical Research & Development, LLC. TF dye used in all experiments was […] (1,8-ANS) (Invitrogen: A-47).
(§2) Compounds were arranged in a pre-dispensed plate (Greiner Bio-one: 781280), wherein compounds were serially diluted in 100% DMSO across 11 columns within a series. Columns 12 and 24 were used as DMSO reference and contained no compound. For multiple compound concentration-response experiments, the compound aliquots ([…]) were robotically predispensed directly into black 384-well polypropylene PCR microplates (Abgene: TF-0384/k) using a Cartesian Hummingbird liquid handler (DigiLab, Holliston, Mass.). Following compound dispense, protein and dye solutions were added to achieve the final assay volume of 3 μL. The assay solutions were overlayed with 1 μL of silicone oil (Fluka, type DC 200: 85411) to prevent evaporation.
(§3) Assay plates were robotically loaded onto a thermostatically controlled PCR-type thermal block and then heated from 40 to 90° C. at a ramp-rate of 1° C./min for all experiments. Fluorescence was measured by continuous illumination with UV light (Hamamatsu LC6) supplied via fiber optics and filtered through a band-pass filter (380-400 nm; >6 OD cutoff). Fluorescence emission of the entire 384-well plate was detected by measuring light intensity using a CCD camera (Sensys, Roper Scientific) filtered to detect 500±25 nm, resulting in simultaneous and independent readings of all 384 wells. A single image with 20-sec exposure time was collected at each temperature, and the sum of the pixel intensity in a given area of the assay plate was recorded vs temperature and fit to standard equations to yield the Tm (J Biomol Screen 2001, 6, 429-40).
(§4) Thermodynamic parameters necessary for fitting compound binding for each proMMP were estimated by differential scanning calorimetry (DSC) and from ThermoFluor® data. The heat capacity of unfolding for each protein was estimated from the molecular weight and from ThermoFluor® dosing data.
The protein sample preparations included a desalting buffer exchange step via a PD-10 gravity column (GE Healthcare). The desalting buffer exchange was performed prior to diluting the protein to the final assay concentration of 2.8 μM proMMP9(20-445;ΔFnII) (SEQ ID NO:6). The concentration of proMMP9(20-445;ΔFnII) (SEQ ID NO:6) was determined spectrophotometrically based on a calculated extinction coefficient of ε280=39880 M^−cm^−1, a calculated molecular weight of 28.2 kDa, and calculated pI of 5.5. ThermoFluor® reference conditions were define as follows: 80 μg/mL (2.8 μM) proMMP9(20-445;ΔFnII) (SEQ ID NO:6), 50 μM 1,8-ANS, pH 7.0 Buffer (50 mM HEPES pH 7.0, 100 mM NaCl, 0.001% Tween-20, 2.5 mM MgCl2, 300 μM CaCl2). The thermodynamic parameters for proMMP9(20-445;ΔFnII) (SEQ ID NO:6) are as follows: Tm (° C.)=72 (+/−0.1), ΔUH(Tm) (cal mol^−1)=160000(+/−5000), ΔUS(Tm) (cal mol^−1 K^−1)=434, ΔUCp (cal mol^−1 K^−)=2400.

The target of experiment [3] is T3, proMMP9(67-444;ΔFnII) (SEQ ID NO:5) (Homo sapiens, UniProt P14780, DEL216-390).
T3 construct: start methionine (N); made in house; host or cells: E. coli BL21(DE3) RIL
T3 sequence (P14780 with tags, fused parts or gaps DEL216-390): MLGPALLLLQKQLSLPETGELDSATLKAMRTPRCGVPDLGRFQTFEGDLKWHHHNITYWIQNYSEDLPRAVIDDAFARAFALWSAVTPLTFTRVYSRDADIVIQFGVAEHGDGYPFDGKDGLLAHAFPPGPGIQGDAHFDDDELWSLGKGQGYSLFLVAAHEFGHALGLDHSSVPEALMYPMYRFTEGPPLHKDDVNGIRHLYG
The experiment can be described thus: ThermoFluor binding assay with proMMP9(67-444;ΔFnII). Conditions: pH 7.0. The method, then:
as §1, §2, §3, §4
The protein sample preparations had to include a desalting buffer exchange step via a PD-10 gravity column (GE Healthcare). The desalting buffer exchange was performed prior to diluting the protein to the final assay concentration of 3.5 μM proMMP9(67-444;ΔFnII) (SEQ ID NO:5). The concentration of proMMP9(67-444;ΔFnII) (SEQ ID NO:5) was determined spectrophotometrically based on a calculated extinction coefficient of ε280=33900 M^−1cm^−1, a calculated molecular weight of 22.6 kDa, and calculated pI of 5.20. ThermoFluor® reference conditions were defined as follows: 80 μg/mL (3.5 μM) proMMP9(67-444;ΔFnII) (SEQ ID NO:5), 50 μM 1,8-ANS, pH 7.0 Buffer (50 mM HEPES pH 7.0, 100 mM NaCl, 0.001% Tween-20, 2.5 mM MgCl2, 300 μM CaCl2). The thermodynamic parameters for proMMP9(67-444;ΔFnII) (SEQ ID NO:5) are as follows: Tm (° C.)=63 (+/−0.1), ΔUH(Tm) (cal mol^−1)=105000(+/−5000), ΔUS(Tm) (cal mol^−1 K^−1)=[…], ΔUCp (cal mol^−1 K^−1)=2000.

Counter-ions that a name gives are not always drawn. Some results are limits rather than exact numbers.

T1 sequence (P14780 20-707 R574P): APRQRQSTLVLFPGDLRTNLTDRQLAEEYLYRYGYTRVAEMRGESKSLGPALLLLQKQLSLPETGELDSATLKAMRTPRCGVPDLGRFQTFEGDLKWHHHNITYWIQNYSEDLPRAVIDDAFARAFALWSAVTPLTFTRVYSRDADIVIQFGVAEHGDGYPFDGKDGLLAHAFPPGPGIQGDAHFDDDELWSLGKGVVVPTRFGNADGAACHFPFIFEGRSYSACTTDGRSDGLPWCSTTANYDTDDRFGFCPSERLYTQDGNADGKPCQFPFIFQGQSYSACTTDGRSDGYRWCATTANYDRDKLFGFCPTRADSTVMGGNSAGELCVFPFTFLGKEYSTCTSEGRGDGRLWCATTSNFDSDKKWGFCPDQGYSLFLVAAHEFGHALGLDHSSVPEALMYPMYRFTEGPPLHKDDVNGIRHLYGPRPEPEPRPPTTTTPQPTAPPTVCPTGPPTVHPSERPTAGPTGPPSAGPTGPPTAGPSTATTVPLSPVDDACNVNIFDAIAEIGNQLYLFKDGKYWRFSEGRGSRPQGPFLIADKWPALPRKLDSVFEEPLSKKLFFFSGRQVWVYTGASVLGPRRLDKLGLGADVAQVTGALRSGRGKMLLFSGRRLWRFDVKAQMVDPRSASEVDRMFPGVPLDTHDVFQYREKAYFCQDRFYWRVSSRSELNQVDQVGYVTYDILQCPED

Consider `CCC(C)Oc1ccc(C(N)=O)cc1Nc1nc(-c2sc(C)nc2C)cs1` (racemic) [Example 14, (±)-4-sec-Butoxy-3-(2′,4′-dimethyl-[4,5′]bithiazolyl-2-ylamino)-benzamide.TFA], for which, in experiment [1], the IC50 was 4700 nM. For the same compound, the Kd stood at 570 nM in experiment [2] and 7000 nM in experiment [3].

`CC(=O)Nc1nc(C)c(-c2csc(Nc3cccc4cc(C)oc34)n2)s1` [Example 9, N-[4′-Methyl-2-(2-methyl-benzofuran-7-ylamino)-[4,5′]bithiazolyl-2′-yl]-acetamide] returned an IC50 in experiment [1] of 3600 nM. In other words, the single-digit micromolar range.

Turning to `CC(=O)Nc1nc(C)c(-c2csc(Nc3cccc4c3OC(F)(F)O4)n2)s1` [Example 10, N-[2-(2,2-Difluoro-benzo[1,3]dioxol-4-ylamino)-4′-methyl-[4,5′]bithiazolyl-2′-yl]-acetamide], in experiment [1], 5600 nM corresponded to half-maximal inhibition (IC50).

In the case of `Cc1nc(C)c(-c2csc(Nc3cc(C(N)=O)ccc3OC(C)(C)C)n2)s1` [Example 12, 4-tert-Butoxy-3-(2′,4′-dimethyl-[4,5′]bithiazolyl-2-ylamino)-benzamide], half-maximal inhibition in experiment [1] (IC50) was put at 2500 nM. Moreover, the Kd is 1900 nM in experiment [2] and 15000 nM in experiment [3].

Consider `Cc1nc(C)c(-c2csc(Nc3cc(C(N)=O)ccc3OCC(F)(F)F)n2)s1` [Example 16, 3-(2′,4′-Dimethyl-[4,5′]bithiazolyl-2-ylamino)-4-(2,2,2-trifluoro-ethoxy)-benzamide], for which the midpoint of inhibition in experiment [1], the IC50, lay at 1300 nM. Moreover, the Kd in experiment [2] was 240 nM; in experiment [3], 2100 nM.

As for `CCN(CC)S(=O)(=O)c1ccc(OC)c(Nc2nc(-c3sc(NC(C)=O)nc3C)cs2)c1` [Example 20, N-[2-(5-Diethylsulfamoyl-2-methoxy-phenylamino)-4′-methyl-[4,5]bithiazolyl-2′-yl]-acetamide], the values for the Kd in experiment [2] and in experiment [3] were 21000 nM and 6700 nM, respectively.

`COc1ccc(C(F)(F)F)cc1Nc1nc(-c2sc(N)nc2C)cs1` [Example 22, N^2-(2-Methoxy-5-trifluoromethyl-phenyl)-4′-methyl-[4,5′]bithiazolyl-2,2′-diamine.HBr]: the equilibrium dissociation constant (Kd) in experiment [2] turned out to be 6400 nM; in experiment [3] it was 1600 nM.

Regarding `COc1ccc(C(N)=O)cc1Nc1nc(-c2cnc(N)s2)cs1` [Example 27, 3-(2′-Amino-[4,5′]bithiazolyl-2-ylamino)-4-methoxy-benzamide.HBr], in experiment [1], the IC50 was 5200 nM. In addition, the Kd amounted to 1000 nM in experiment [2] and 2800 nM in experiment [3].

For `COc1cc(C(N)=O)ccc1Nc1nc(-c2sc(C)nc2C)cs1` [Example 35, 4-(2′,4′-Dimethyl-[4,5′]bithiazolyl-2-ylamino)-3-methoxy-benzamide], the Kd in experiment [2] came out at 14000 nM; in experiment [3] it was 3900 nM.

Take `COc1cc(C)c(C(N)=O)cc1Nc1nc(-c2sc(N3CCN(C)CC3)nc2C)cs1` [Example 37, 4-Methoxy-2-methyl-5-[4′-methyl-2′-(4-methyl-piperazin-1-yl)-[4,5]bithiazolyl-2-ylamino]-benzamide.HCl]: the half-inhibitory concentration (IC50) in experiment [1] was determined as 3600 nM. For the same compound, the figures for the Kd in experiment [2] and in experiment [3] were 570 nM and 7200 nM, respectively.

As to `Cc1nc(C)c(-c2csc(Nc3cc(C(N)=O)ccc3CC(C)C)n2)s1` [Example 38, 3-(2′,4′-Dimethyl-[4,5′]bithiazolyl-2-ylamino)-4-isobutyl-benzamide.TFA], in experiment [1], the IC50 was determined as 800 nM. Also, the dissociation constant (Kd) in experiment [2] came out at 550 nM.

In the case of `COc1cc(Nc2nc(-c3sc(C)nc3C)cs2)c2ncccc2c1` [Example 41, (2′,4′-Dimethyl-[4,5′]bithiazolyl-2-yl)-(6-methoxy-quinolin-8-yl)-amine.TFA], in experiment [1], the IC50 is ~13000 nM. For the same compound, the Kd was determined as 84000 nM in experiment [2] and 61000 nM in experiment [3].

Compound `Cc1nc(C)c(-c2csc(Nc3cccc4cccnc34)n2)s1` [Example 42, (2′,4′-Dimethyl-[4,5′]bithiazolyl-2-yl)-quinolin-8-yl-amine.TFA] registered an IC50 in experiment [1] of 9100 nM. Moreover, the Kd was > 95000 nM in experiment [2] and 52000 nM in experiment [3].

Turning to `COc1ccc(S(N)(=O)=O)cc1Nc1nc(-c2sc(N)nc2C)cs1` [Example 52, 3-(2′-Amino-4′-methyl-[4,5′]bithiazolyl-2-ylamino)-4-methoxy-benzenesulfonamide.HBr], the IC50 in experiment [1] was 1200 nM. Moreover, the Kd in experiment [2] was 870 nM; in experiment [3], 1600 nM.

As for `COc1ccc(S(N)(=O)=O)cc1Nc1nc(-c2sc(NC(C)=O)nc2C)cs1` [Example 53, N-[2-(2-Methoxy-5-sulfamoyl-phenylamino)-4′-methyl-[4,5′]bithiazolyl-2′-yl]-acetamide.HBr], the 50% inhibitory concentration (IC50) in experiment [1] was 1900 nM. Moreover, the equilibrium dissociation constant (Kd) came to 1500 nM in experiment [2] and 1200 nM in experiment [3].

As to `COc1ccc(C(=O)NCc2ccccc2)cc1Nc1nc(-c2sc(N)nc2C)cs1` [Example 56, 3-(2′-Amino-4′-methyl-[4,5′]bithiazolyl-2-ylamino)-N-benzyl-4-methoxy-benzamide.TFA], in experiment [1], the IC50 came to 12000 nM. Moreover, the values for the Kd in experiment [2] and in experiment [3] were 1300 nM and 2300 nM, respectively.

In experiment [1], `COc1ccc([N+](=O)[O-])cc1Nc1nc(-c2sc(N)nc2C)cs1` [Example 67, N^2-(2-Methoxy-5-nitro-phenyl)-4′-methyl-[4,5′]bithiazolyl-2,2′-diamine.HBr] returned an IC50 of 450 nM. In addition, the Kd in experiment [2] turned out to be 560 nM; in experiment [3], 87 nM.

As for `Cc1nc(C2CCN(C)CC2)sc1-c1csc(Nc2cc(S(N)(=O)=O)ccc2OC(C)C)n1` [Example 156, 4-Isopropoxy-3-((4′-methyl-2′-(1-methylpiperidin-4-yl)-[4,5′-bithiazol]-2-yl)amino)benzenesulfonamide.TFA], half-maximal inhibition in experiment [1] (IC50) required 67 nM.

In experiment [1], `CCOc1ccncc1Nc1nc(-c2sc(C3CCN(C)CC3)nc2C)cs1` [Example 158, N-(4-Ethoxypyridin-3-yl)-4′-methyl-2′-(1-methylpiperidin-4-yl)-[4,5′-bithiazol]-2-amine.TFA] gave an IC50 of 290 nM.
